From patent US6193992A, “Female sexual dysfunction treatment” (Pentech Pharmaceuticals, Inc., priority 1999, dated 2001)
“Also recorded” adds a separate entry of the source.

How the values were obtained:
emesis = details: subcutaneous, about a 5-milligram dose; cited from earlier work
[1] = system: systemic arterial pressure; experiment: Effect of apomorphine on systemic arterial pressure; format: in vivo, New Zealand White female rabbits; details: intravenous, female rabbits, FIG. 3
Method: (§1) New Zealand White female rabbits (n=6, about 3.5-4 kg) were anesthetized with intravenous administration of pentobarbital. A 20 gauge angiocatheter was placed into the right carotid artery for measurement of systemic arterial pressure. A midline abdominal incision was made and the pelvic nerve branch to the vagina and clitoris was dissected. Nerve stimulation was performed with a Harvard subminiature electrode placed around the pelvic nerve branch to the vagina and clitoris and connected to a Grass SD-9 stimulator. Clitoral intracavernosal and vaginal wall blood flow were measured with a laser Doppler flow probe placed directly into the clitoral cavernosal tissue or into the vaginal wall and connected to a laser Doppler flowmeter.
(§2) Basal arterial blood pressure and clitoral and vaginal blood flow were each recorded before and then after stimulation of the pelvic nerve branch to the clitoris and vagina.

vaginal wall blood flow = experiment: Effect of apomorphine on vaginal wall blood flow (laser Doppler flow) before and after pelvic nerve stimulation; format: in vivo, New Zealand White female rabbits; details: female rabbits
Method: as §1, §2

[2] = system: clitoral intracavernosal blood flow; experiment: Effect of apomorphine on clitoral intracavernosal blood flow (laser Doppler flow) before and after pelvic nerve stimulation; format: in vivo, New Zealand White female rabbits; details: intravenous, female rabbits
Method: as §1, §2

[3] = system: vaginal and clitoral blood flow; experiment: Optimum dose for vasculogenic effect on nerve stimulated vaginal and clitoral blood flow; format: in vivo, New Zealand White female rabbits; details: female rabbits
Method: as §1, §2

penile erection = details: cited from earlier work
[4] = apomorphine hydrochloride studies reported in the literature; cited from earlier work
[5] = system: sexual readiness (clitoral erectogenesis and vaginal engorgement on sexual stimulation); experiment: Extrapolation of rabbit optimum dose to human females (sexual readiness dose)

CN1CCc2cccc3c2[C@H]1Cc1ccc(O)c(O)c1-3 [apomorphine, Apomorphine]
emetic effect (emesis): emetic | diastolic arterial pressure ([1]; increasing doses 0.05-0.4 mg/kg): concentration dependent moderate decrease | systolic arterial pressure [1]: minimal effect | effect on nerve stimulation-induced increase in vaginal wall blood flow (vaginal wall blood flow; 0.4 mg/kg): adverse effect | nerve stimulation-induced peak vaginal wall blood flow, concentration dependence (vaginal wall blood flow; intravenous, 0.05 and 0.2 mg/kg, FIG. 2): concentration dependent increase | nerve stimulation-induced peak vaginal wall blood flow, significance vs before apomorphine administration (vaginal wall blood flow; intravenous, 0.1 and 0.2 mg/kg, FIG. 2): statistically significant increase; also recorded: significant increase in vaginal wall blood flow | effect on basal vaginal wall blood flow (vaginal wall blood flow; intravenous, before nerve stimulation): did not affect basal vaginal wall blood flow | nerve stimulation-induced peak clitoral intracavernosal blood flow, concentration dependence ([2]; 0.05 mg/kg to 0.2 mg/kg, FIG. 1): concentration dependent increase | nerve stimulation-induced peak clitoral intracavernosal blood flow, significance vs before apomorphine administration ([2]; 0.1 mg/kg, 0.2 mg/kg and 0.3 mg/kg, FIG. 1): statistically significant increase; also recorded: significant increase in nerve stimulation-induced peak clitoral intracavernosal blood flow | effect on baseline clitoral intracavernosal blood flow ([2]; before nerve stimulation): did not affect baseline clitoral intracavernosal blood flow | optimum intravenous dosage for vasculogenic effect on nerve stimulated vaginal and clitoral blood flow ([3]; body weight): about 100 μg/kg | optimal dose ([3]; intravenous): about 0.1 mg/kg | erectogenic effect in males (penile erection; males, research and clinical studies): erectogenic effect manifested by penile erection | induction of erection on oral administration (penile erection; oral, psychogenic patient, U.S. Pat. No. 5,624,677 and Heaton et al.): can be used to induce an erection | plasma concentration maintained for stimulation sufficient to cause an erection (penile erection; sublingual, patient): no more than 5.5 ng/ml | pharmacokinetics, females versus males [4]: the same for both females and males | optimum dosage for human females ([5]; correlated from rabbit intravenous dosage (about 1/10)): ~10 µg/kg | effective dose in a human female ([5]; correlated from rabbit intravenous dose (about 1/10)): about 0.01 mg/kg | significant sexual readiness dose ([5]; sublingual tablet, women, about 70 kilograms): about 76 μg/kg | significant sexual readiness dosage ([5]; sublingual, 70 kg weight woman): about 76 micrograms/kg
